Measured values published in US5296487A, “Quinazoline derivatives and their preparation” (priority 1990, dated 1994).
In brackets after ≈: the same amount, converted by molar mass. Where a name gives a salt, the structure may show the parent alone.

Legend:
α1-adrenoceptor = α1-adrenoceptor binding assay; settings: 3H-Prazosin binding, rat whole brain membranes
Procedure: Test 5 [α1-adrenoceptor binding assay]
Male Wistar rats (200-250 g) were killed by decapitation and the brain was placed in ice-cold buffer (0.25 M sucrose, 5 mM Tris/HCl, 1 mM MgCl2, pH 7.5).
Whole brain was homogenized in 10-20 volume (w/v) of ice-cold buffer for 20 strokes using a motor-drived Teflon-glass homogenizer. The homogenate was centrifuged at 1,000 g for 10 min at 4° C., and the pellet was discarded. The supernatant was centrifuged at 30,000 g for 20 min at 4° C. The pellet obtained was washed by
resuspension in 20 ml ice-cold 50 mM Tris/HCl, 10 mM MgCl2 buffer (pH 7.5) and recentrifuged at 30,000 g for 20 min at 4° C. The final pellet was resuspended in 15 volumes of original wet weight of 50 mM Tris/HCl, 10 mM MgCl2 buffer (pH 7.5) for use in the assays.
For ^3 H-Prazosin binding to rat brain, membrane suspensions prepared from rat whole brain (0.3-0.4 mg protein) were incubated by constant shaking for 20 min at 30° C. with ^3 H-Prazosin ([…]) and increasing concentrations of test compounds (10^-6 -10^-9 M) in a total volume of 550 μl of 50 mM Tris/HCl, 10 mM MgCl2 buffer containing 0.1 mg/ml bovine serum albumin (pH 7.5). […] These filter disks were counted by liquid scintillation counter with an efficacy of 40%. […] The concentration of the test compound inhibiting 50% of the specific binding of ^3 H-Prazosin was calculated by log profit analysis of the binding data.

[1] = test system: reserpine-induced DOPA accumulation; test: Inhibition of reserpine-induced DOPA accumulation; format: in vivo, Male SD rats; settings: dose 3.2 mg/kg, orally, 2 hours before sacrifice; striatum
Procedure: Test 2 [Inhibition of reserpine-induced DOPA accumulation]
Male SD rats weighing 300-400 g were used in this test. Rats were pretreated with reserpine (1 mg/kg, S.C.) 17-19 hours before sacrifice and then fasted. Test Compound was given orally to the rats 2 hours before sacrifice. [m-Hydroxybenzylhydrazine (100 mg/kg, i.p.) was given 30 minutes before sacrifice.] Each rat was exposed to microwaves using a head-focus microwave applicator for 1.5 seconds. The whole brain was removed and further separated into the striatum.
DOPA was determined as follows; the striatum was homogenized in 9 volumes of 0.1N perchloric acid solution (0.4% EDTA·2Na). The homogenate was centrifuged at 10,000 rpm for 1 minutes. The supernatant was applied to high performance liquid chromatography.

DA2 receptor = target: T1, DA2 receptor (Rattus norvegicus, UniProt P61169); test: Dopamine receptor (DA2 receptor) binding assay
T1 construct: the striatum were dissected from their brains; from tissue; host or cells: rat striatum (male rats, 150-300 g), washed homogenate pellet
T1 sequence (P61169 whole entry): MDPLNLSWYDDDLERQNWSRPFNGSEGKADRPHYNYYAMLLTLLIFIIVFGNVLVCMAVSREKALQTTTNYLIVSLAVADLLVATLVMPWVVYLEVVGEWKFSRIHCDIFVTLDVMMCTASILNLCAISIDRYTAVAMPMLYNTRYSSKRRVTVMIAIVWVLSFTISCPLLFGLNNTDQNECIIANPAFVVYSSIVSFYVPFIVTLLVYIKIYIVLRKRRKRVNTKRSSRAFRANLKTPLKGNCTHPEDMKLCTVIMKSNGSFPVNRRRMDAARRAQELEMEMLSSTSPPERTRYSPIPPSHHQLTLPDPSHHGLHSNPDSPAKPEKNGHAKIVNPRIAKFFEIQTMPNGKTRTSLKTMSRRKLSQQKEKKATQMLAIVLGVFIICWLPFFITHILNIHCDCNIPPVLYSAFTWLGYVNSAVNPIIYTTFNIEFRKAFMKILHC
Procedure: Test 1 Dopamine receptor (DA2 receptor) binding assay
The affinity for DA2 receptor of a Test Compound was determined following in vitro receptor binding assays.
Male rats weighing 150-300g were decapitated and the striatum were dissected from their brains. The tissue was homogenized in 30 volumes of buffer which consisted of 50 mM Tris-HCl (pH 7.4 at 25° C.), 120 mM sodium chloride, 5 mM potassium chloride, 1 mM calcium chloride, 1 mM magnesium chloride, 10 μM pargirine, and 0.1% ascorbic acid. The homogenate was centrifuged at 50,000 g for 15 minutes. The pellet was resuspended in 30 volumes of the buffer. The tissue suspension was centrifuged and suspended again in the same way.
Incubation tubes received 100 μl of [phenyl-4-^3 H]spiperone, 100 μl of the Test Compound and 0.8 ml of tissue suspension during binding assays. The concentration of [phenyl-4-^3 H]spiperone was 0.2 nM. The final tissue concentration of rat striatum was 160 μg/ml. […] The filters were counted by liquid scintillation counter.
Specific binding of the [^3 H]spiperone was determined in the presence of 1 μM butaclamol. The IC50 value of the Test Compound was calculated from the data of [^3 H]spiperone binding in the present of 10^-9 M, 10^-8 M, 10^-7 M and 10^-6 M Test Compound.

[2] = Hypotensive effect on spontaneous hypertensive rats; format: in vivo, male spontaneous hypertensive rats; settings: dose 0.32 mg/kg, orally
Procedure: Test 3 [Hypotensive effect on spontaneous hypertensive rats] 15 to 25-Week-old male spontaneous hypertensive rats with mean arterial blood pressure of about 160-200 mmHg, weighing 300-350 g, were used. The animals were cannulated in the left femoral artery and the mean blood pressure and heart rate were measured with a pressure-transducer. The animals were deprived of food for about 18 hours before oral dosing. The Test Compound was suspended in 0.5% methylcellulose, and given orally.

[3] = Effect on Plasma Triglyceride Level; format: in vivo, Male SD rats; settings: dose 10 mg/kg/day, orally once a day for two weeks; STZ-induced diabetic rats
Procedure: Test 7 [Effect on Plasma Triglyceride Level]
Male SD rats weighing 180-230 g were made diabetic by intravenous administration of streptozotocin (STZ) at a dose of 60 mg/kg dissolved in 2 mM citrate buffer (pH 4.5). One week later, the rats were grouped by plasma triglyceride level and test compound were administered orally once a day for two weeks. Then blood samples were collected from orbital vein, and plasma triglyceride levels were measured enzymatically (Triglyceride G-Test WAKO). Control group received 0.5% methyl cellulose.

[4] = Stability (storage at accelerated conditions); format: physicochemical; settings: for Residual Amount (%): 12960 min
Procedure: Test Compounds were stored for 9 days at accelerated conditions as shown in the following table, and the residual amounts of them were determined by a High Performance Liquid Chromatography (HPLC).

[5] = Solubility of the test compounds in various solvents; format: physicochemical; settings: for Solubility: ambient temperature
Procedure: The solubility of the test compounds in various solvents was measured at ambient temperature.

[6] = Effect on Renal Blood Flow; format: in vivo, Male beagle dogs; settings: 10 μg/kg i.v., anesthetized dogs
Procedure: Test 6 Effect on Renal Blood Flow
Male beagle dogs, weighing 7-12 kg were anesthetized with sodium pentobarbital (30 mg/kg i.v.). The left renal artery was exposed retroperitoneally through a flank incision, and an electromagnetic flowmeter probe were placed around the left renal artery to measure renal blood flow.

[7] = 70° C./75% Relative Humidity, 9 days, HPLC

With `CS(=O)(=O)Nc1ccc2[nH]c(=O)n(CCCCN3CC=C(c4ccccc4)CC3)c(=O)c2c1` [Compound B, 3-[4-(4-phenyl-1,2,3,6-tetrahydropyridin-1-yl)butyl]-6-methylsulfonylamino-1,2,3,4-tetrahydroquinazoline-2,4-dione] the IC50 (α1-adrenoceptor) was 38 nM.

In the case of `O=c1[nH]c2cc(NO)ccc2c(=O)n1CCCCN1CC=C(c2ccccc2)CC1` [Compound A, 7-hydroxyamino-3-[4-(4-phenyl-1,2,3,6-tetrahydropyridin-1-yl)butyl]-1,2,3,4-tetrahydroquinazoline-2,4-dione], the IC50 (α1-adrenoceptor) is reported as 20 nM, the “Inhibition (%)” value [1] is reported as 33% and the IC50 (DA2 receptor) is reported as 8.1 nM. For the same compound, the “Maximum decrease of blood pressure (%)” value [2] was 34%.

In the case of `CCS(=O)(=O)Nc1ccc2[nH]c(=O)n(CCCCN3CC=C(c4ccccc4)CC3)c(=O)c2c1` [Compound C, 6-Ethylsulfonylamino-3-[4-(4-phenyl-1,2,3,6-tetrahydropyridin-1-yl)butyl]-1,2,3,4-tetrahydroquinazoline-2,4-dione], the plasma triglyceride [3] is reported as 138.2 ± 47.0 mg/dL, the remaining at 216 h ([4]; 70° C., 9 days, HPLC, read-out: Residual Amount (%)) is reported as 83.4% and the “Residual Amount (%)” value [4, 7] is reported as 69.6%. The Solubility ([5]; isotonic saline) was 9.41 µg/mL (≈ 19.5 µM), the Solubility ([5]; water) was 7.4 µg/mL (≈ 15.3 µM) and the “RBF (% change)” value [6] was “+29 % change”.

With `CCS(=O)(=O)Nc1ccc2[nH]c(=O)n(CCCCN3CC=C(c4ccccc4)CC3)c(=O)c2c1` [Compound D, 6-ethylsulfonylamino-3-[4-(4-phenyl-1,2,3,6=tetrahydropyridin-1-yl)butyl]-1,2,3,4=tetrahydroquinazoline-2,4-dione sulfate] the “stability (in words)” value [4] was “better solubility and stability”, the “Residual Amount (%)” value ([4]; 70° C., 9 days, HPLC) was 98.2% and the “Residual Amount (%)” value [4, 7] was 99.7%. The Solubility ([5]; isotonic saline) was 183 µg/mL, the “solubility (in words)” value ([5]; versus the product of Example 32) was “better solubility” and the Solubility ([5]; water) was 733 µg/mL.
